The values below come from ChEMBL document CHEMBL4177656, “Improving metabolic stability with deuterium: The discovery of GPU-028, a potent free fatty acid receptor 4 agonists” (Bioorg Med Chem, 2017).

For data set [1], the system named is Mus musculus. As to the kind of experiment: Hypoglycemic activity in C57BL/6 DIO mouse model assessed as decrease in blood glucose AUC (0 to 120 mins) at 30 mg/kg administered via gavage twice daily for 28 days measured on day 29 by OGTT. The data set is classed as functional, organism-based. Conditions: tested as the 2H-labelled form.
Data set [2] can be described thus: AUC (0 to 24 hrs) in Sprague-Dawley rat at 10 mg/kg, po administered as single dose by LC-PDA-MS/MS analysis. The settings on record: in vivo. The data set is classed as ADME, organism-based. More on the design: time < 24 hr, dose 10 mg/kg, route oral.
The test system of data set [3] is Mus musculus. Briefly: Hypoglycemic activity in C57BL/6 DIO mouse model assessed as fasting glucose levels at 30 mg/kg administered via gavage twice daily for 28 days measured on day 29 by OGTT. Type of data set: functional, organism-based. The settings on record: tested as the 2H-labelled form.
Data set [4] in a line: Cmax in Sprague-Dawley rat at 10 mg/kg, po administered as single dose by LC-PDA-MS/MS analysis. The settings on record: in vivo. More on the design: dose 10 mg/kg, route oral. Type of data set: ADME, organism-based.
Data set [5] is described as follows: Half life in Sprague-Dawley rat at 10 mg/kg, po administered as single dose by LC-PDA-MS/MS analysis. The data set is classed as ADME, organism-based. Conditions: in vivo.
Data set [6] relates to Mus musculus. As to the kind of experiment: Hypoglycemic activity in C57BL/6 DIO mouse model assessed as decrease in blood glucose AUC (0 to 120 mins) at 30 mg/kg administered via gavage twice daily for 28 days measured before glucose challenge by OGTT. The data set is classed as functional, organism-based. Conditions: tested as the 2H-labelled form.
Data set [7] can be described thus: Clearance in Sprague-Dawley rat at 10 mg/kg, po administered as single dose by LC-PDA-MS/MS analysis. Type of data set: ADME, organism-based. Conditions: in vivo.
Data set [8] can be described thus: Plasma clearance in rat. Type of data set: ADME, organism-based.
The target in data set [9] is T1, Free fatty acid receptor 4 (Homo sapiens, UniProt Q5NUL3).
T1 sequence (Q5NUL3 whole entry): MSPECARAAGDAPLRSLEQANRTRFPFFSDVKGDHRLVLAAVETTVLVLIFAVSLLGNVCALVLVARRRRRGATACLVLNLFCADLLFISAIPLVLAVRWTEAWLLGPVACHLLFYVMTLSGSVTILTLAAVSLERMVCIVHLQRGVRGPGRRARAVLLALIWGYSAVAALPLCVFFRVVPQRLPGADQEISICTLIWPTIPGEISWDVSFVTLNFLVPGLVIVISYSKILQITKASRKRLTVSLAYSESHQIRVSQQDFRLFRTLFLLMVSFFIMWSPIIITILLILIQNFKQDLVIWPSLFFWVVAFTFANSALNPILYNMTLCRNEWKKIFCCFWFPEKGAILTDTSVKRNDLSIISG
Briefly: Agonist activity at human FFAR4 expressed in CHO cells assessed as beta-arrestin recruitment after 90 mins by luminescence assay. Type of data set: functional, cell-based.

The test system of data set [10] is Mus musculus. As to the kind of experiment: Toxicity in C57BL/6 DIO mouse model at 30 mg/kg administered via gavage twice daily for 28 days. The data set is classed as organism-based. The settings on record: in vivo, po, 672 h.

Activity calls are given as the source filed them. No cut-off for these calls is given here. Bounds are passed on as bounds.

With `Cc1ccc(-c2ccc(F)cc2COc2ccc(CCC(=O)O)cc2)cc1`, the result in data set [1] and in data set [3] was Active. Further, in data set [2], the AUC(0-t) at 24 h worked out at 1370 ng·h/mL. Further, the Cmax in [4] was 969 ng/mL. In addition, the half-life in data set [5] was 0.79 h. For the same molecule, the outcome in data set [6] was inactive. In addition, the CL/F in data set [7] was 61.2 mL/min/kg. The clearance in [8] is 61.2 mL/min/kg.
Turning to `Cc1cc(OCCCS(C)(=O)=O)cc(C)c1-c1cccc(COc2ccc3c(c2)OC[C@H]3CC(=O)O)c1`, in data set [9], the EC50 was greater than 10 µM.
`[2H]C([2H])(Cc1ccc(OCc2cc(F)ccc2-c2ccc(C)cc2)cc1)C(=O)O`: the area under the curve AUC(0-t) at 24 h in data set [2] turned out to be 6280 ng·h/mL. For the same molecule, the Activity result in data set [10] is recorded as “Non-Toxic”. Moreover, in data set [4], the peak level (Cmax) was 2040 ng/mL. In data set [5], this molecule showed a half-life of 1.66 h. In addition, the CL/F in data set [7] was 16.2 mL/min/kg.
